Assay results reported in EP3248604A1, “AGENTS FOR MODULATION OF WNT-TCF SIGNALLING AND USES THEREOF” (UNIVERSITE DE GENEVE, priority 2016, dated 2017).

Assays:
Assay type in all cases: cell-based, human
WNT-TCF targets [1] = assay: RT-qPCR gene expression in MeWo melanoma cells; details: 16h, batch 3, vs DMSO=1
Description: (§1) RT-qPCR was performed as in Melotti et al. (2014, supra) using BioRad equipment and reagents. Cells cultured in nitro were treated with the desired concentration of drug in DMEM-F12 and reduced serum (2.5% FBS) for 16h, unless otherwise noted, and collected in Trizol (Sigma) before total RNA extraction and cDNA synthesis. Primers were as in Table 1. HPRT (gene encoding Hypoxanthine phosphoribosyltransferase 1) and βACTIN were used as housekeeping controls for normalization.
Primary colon cells CC14, CC36 and mCC11, colon cancer cell lines DLD1, HT29, Ls174T, melanoma cell line MeWo, glioblastoma cell lines U87 and U251, and the lung cancer cell line H358 were cultured in DMEM-F12 with 10% FBS under standard in nitro conditions.

Chemokine/cytokine = assay: RT-qPCR gene expression in Ls174T cells, chemokine/cytokine genes; parameters: key: ratio normalized to DMSO control = 1; details: vs DMSO=1
Description: as §1
(§2) Nine components of the three pathways (WNT-TCF, BMP/TGFβ and chemokine/cytokine), and the top 6 repressed epigenetic regulators (ZMYND8, EED, SMARCAL1, TBLIXR1, SETD6 and TAF5L) (Figure 12) were tested for their modulation by dnTCF and their timed response to CAP2 treatment. […] DnTCF also repressed the expression of BMP4, SMAD6, IL8, CXCL3 and CXCL5, but expression of IL33 was enhanced. […] BMP4 and ID2 were also repressed at 2 and 4h but SMAD6 was repressed only at 4h. CXCL3 was already repressed at 2h, IL8 was little affected and IL33 and CXCL5 were enhanced at 2h. At 4 h only CXCL3 was repressed and the other three cytokine/chemokine genes tested (IL8, IL33 and CXCL5) were neither enhanced nor repressed. […] All values are normalized ratios with DMSO-controls, which were equated to 1 Table 14

WNT-TCF targets [2] = assay: RT-qPCR in cells dissociated from DLD1 xenograft tumors, treated in vitro; details: 16h, vs DMSO
Description: as §1
Four DLD1 regressed tumors were monitored after cessation of CAP2 treatment to determine recurrence after drug withdrawal. […] Tumor regrowth, however, could be due in principle to insufficient drug dosage or to the development of drug resistance. To test these possibilities the recurrent tumor was thus excised and the cells plated in vitro to test for the possible development of CAP2 resistance. One control in vivo cyclodextrin-treated tumor taken before reaching the legal (at around 21 day) limit was similarly processed to serve as control. […] The levels of WNT-TCF targets were generally lower in cells derived from tumors that were exposed in vivo to CAP2 in comparison to those in cells from tumors that were not treated with CAP2 (Figure 10). […] This consistent difference in the levels of several WNT-TCF targets raised the possibility that whereas tumor recurrence might be due to incomplete initial dosage, the recurring tumor harbored the memory of previous CAP2 treatment.

BMP/TGFβ = assay: RT-qPCR gene expression in Ls174T cells, BMP/TGFβ genes; details: vs DMSO=1
Description: as §1, §2

[3] = system: chromatin components and remodelers; assay: Microarray analysis of chromatin components and remodelers in Ls174T cells; details: CAP2-treated cells vs DMSO
Description: Cells treated with compounds were collected in Trizol and RNA was harvested using standard protocols. Quality and quantity of RNA was checked using Nano Series (Agilent Technologies). Samples with a RNA Integrity Number (RIN) >9/10 were chosen and cDNA and cRNA samples were prepared using GeneChip IVT Express kit. Genechip hybridization was done using the same kit and applied to PrimeView U219 human array (Affymetrix) in the Genomic Platform at the Faculty of Medicine, University of Geneva.
Mining the transcriptome of CAP2-treated cells for CAP2-induced expression changes the public Reactome database for a chromatin organization cluster expanded to include related family members (94 probes) was used.

[4] = DLD1 CAP2-treated tumor dissociated re-treated in vitro, 2.5µM
[5] = DLD1 CAP2-treated tumor dissociated re-treated in vitro, 5µM
[6] = DLD1 control tumor dissociated treated in vitro, 2.5µM
[7] = DLD1 control tumor dissociated treated in vitro, 5µM

`CC1=C(C)C(=O)O[C@@H]([C@](C)(O)[C@]2(O)CC[C@@]3(O)[C@@H]4CC=C5CC=CC(=O)[C@]5(C)[C@H]4CC[C@]23C)C1` [CAP2] gave an AXIN2 expression (WNT-TCF targets [1]; 1.25µM) of 0.4, an LEF1 expression (WNT-TCF targets [1]; 1.25µM) of 0.1 and an AXIN2 expression (WNT-TCF targets [1]; 2.5µM) of 0.6. It also gave an LEF1 expression (WNT-TCF targets [1]; 2.5µM) of 0.2, an AXIN2 expression (WNT-TCF targets [1]; 5µM) of 0.3 and an LEF1 expression (WNT-TCF targets [1]; 5µM) of 0.1. For the same molecule, the AXIN2 expression (WNT-TCF targets [1]; 10µM) was 0.6, the LEF1 expression (WNT-TCF targets [1]; 10µM) was 0.1 and the CXCL3 expression (Chemokine/cytokine; 5µM batch 3, 2h post-treatment) was 0.2. The CXCL5 expression (Chemokine/cytokine; 5µM batch 3, 2h post-treatment) was 1.3, the IL8 expression (Chemokine/cytokine; 5µM batch 3, 2h post-treatment) was 0.7 and the IL33 expression (Chemokine/cytokine; 5µM batch 3, 2h post-treatment) was 1.4. The CXCL3 expression (Chemokine/cytokine; 5µM batch 3, 4h post-treatment) was 0.1, the CXCL5 expression (Chemokine/cytokine; 5µM batch 3, 4h post-treatment) was 1.1 and the IL8 expression (Chemokine/cytokine; 5µM batch 3, 4h post-treatment) was 0.8. The IL33 expression (Chemokine/cytokine; 5µM batch 3, 4h post-treatment) was 1.1, the ASCL2 expression (WNT-TCF targets [2]; [4]) was 0.05 and the AXIN2 expression (WNT-TCF targets [2]; [4]) was 0.4. It also gave an LEF1 expression (WNT-TCF targets [2]; [4]) of 0.4, an LGR5 expression (WNT-TCF targets [2]; [4]) of 0.6 and a cMYC expression (WNT-TCF targets [2]; [4]) of 0.2. It also gave an ASCL2 expression (WNT-TCF targets [2]; [5]) of 0.1, an AXIN2 expression (WNT-TCF targets [2]; [5]) of 0.3 and an LEF1 expression (WNT-TCF targets [2]; [5]) of 0.3. The LGR5 expression (WNT-TCF targets [2]; [5]) was 0.3, the cMYC expression (WNT-TCF targets [2]; [5]) was 0.1 and the ASCL2 expression (WNT-TCF targets [2]; [6]) was 0.1. It also gave an AXIN2 expression (WNT-TCF targets [2]; [6]) of 0.6, an LEF1 expression (WNT-TCF targets [2]; [6]) of 0.4 and an LGR5 expression (WNT-TCF targets [2]; [6]) of 0.7. For the same molecule, the cMYC expression (WNT-TCF targets [2]; [6]) was 0.3, the ASCL2 expression (WNT-TCF targets [2]; [7]) was 0.1 and the AXIN2 expression (WNT-TCF targets [2]; [7]) was 0.6. It also gave an LEF1 expression (WNT-TCF targets [2]; [7]) of 0.3, an LGR5 expression (WNT-TCF targets [2]; [7]) of 0.4 and a cMYC expression (WNT-TCF targets [2]; [7]) of 0.3. It also gave a BMP4 expression (BMP/TGFβ; 5µM batch 3, 2h post-treatment) of 0.4, an ID2 expression (BMP/TGFβ; 5µM batch 3, 2h post-treatment) of 0.7 and an SMAD6 expression (BMP/TGFβ; 5µM batch 3, 2h post-treatment) of 1.3. For the same molecule, the BMP4 expression (BMP/TGFβ; 5µM batch 3, 4h post-treatment) was 0.1, the ID2 expression (BMP/TGFβ; 5µM batch 3, 4h post-treatment) was 0.1 and the SMAD6 expression (BMP/TGFβ; 5µM batch 3, 4h post-treatment) was 0.4. The EED repression [3] was 8 fold, the SMARCAL1 repression [3] was 6 fold and the ZMYND8 repression [3] was 28 fold.
